Measurements: PMC3108470 (Journal of Medicinal Chemistry, 2011)

Legend:
[1] = biological target: ΔF508-CFTR (Homo sapiens, UniProt P13569, DEL508-508); test: ΔF508-CFTR potentiator assay, HS-YFP fluorescence quenching; format: cell-based; details: for nH (Hill coefficient): FRT cells, forskolin 20 μM, Hill fit; for activity on ΔF508-CFTR: inactive up to 20 μM
[2] = tested on: guinea pig ileum longitudinal smooth muscle; test: Relaxant activity on K+-depolarized
[3] = tested on: guinea pig left atrium; test: Negative inotropic activity in isolated left atrium driven at 1 Hz
[4] = tested on: guinea pig left atrium; details: cited from earlier work; for intrinsic activity, inotropic effect: at the highest concentration studied
[5] = tested on: guinea pig right atrium; details: cited from earlier work; for intrinsic activity, chronotropic effect: at the highest concentration studied
[6] = tested on: guinea pig aortic strip; test: Vasorelaxant activity, calcium-induced contraction of K+-depolarized; details: result in words

Structure (SMILES)	nH (Hill coefficient) [1]	activity on ΔF508-CFTR [1]	further results
CCOC(=O)C1=C(C)NC(C)=C(C(=O)OCC)C1c1c(C(F)(F)F)nc2sccn12 [Compound 16, Diethyl 2,6-Dimethyl-4-(6-(trifluoromethyl)imidazo[2,1-b]thiazol-5-yl)-1,4-dihydropyridine-3,5-dicarboxylate]	0.66	–	GPILSM relaxant potency, times less potent than nifedipine [2]: about 65 times
COC(=O)C1=C(C)NC(C)=C(C(=O)OC)C1c1c(-c2ccc(C(F)(F)F)cc2)nc2sccn12 [Compound 17, Dimethyl 2,6-Dimethyl-4-(6-(4-(trifluoromethyl)phenyl)imidazo[2,1-b]thiazol-5-yl)-1,4-dihydropyridine-3,5-dicarboxylate]	2.15	–	negative inotropic effect, times greater than that of nifedipine [3]: about 2.6 times; GPILSM relaxant potency, times less potent than nifedipine [2]: about 3 times
CCOC(=O)C1=C(C)NC(C)=C(C(=O)OCC)C1c1c(-c2ccc(C(F)(F)F)cc2)nc2sccn12 [Compound 18, Diethyl 2,6-Dimethyl-4-(6-(4-(trifluoromethyl)phenyl)imidazo[2,1-b]thiazol-5-yl)-1,4-dihydropyridine-3,5-dicarboxylate]	1.69	–	–
C=CCOC(=O)C1=C(C)NC(C)=C(C(=O)OCC=C)C1c1c(-c2ccc(C(F)(F)F)cc2)nc2sc(C)c(C)n12 [Compound 19, Diallyl 4-(2,3-Dimethyl-6-(4-(trifluoromethyl)phenyl)imidazo[2,1-b]thiazol-5-yl)-2,6-dimethyl-1,4-dihydropyridine-3,5-dicarboxylate]	1.14	–	negative inotropic over chronotropic selectivity ratio ([3]; EC50 chronotropic / EC50 inotropic): about 33 fold
COC(=O)C1=C(C)NC(C)=C(C(=O)OC)C1c1c(-c2ccc(OC(F)(F)F)cc2)nc2sccn12 [Compound 20, Dimethyl 2,6-Dimethyl-4-(6-(4-(trifluoromethoxy)phenyl)imidazo[2,1-b]thiazol-5-yl)-1,4-dihydropyridine-3,5-dicarboxylate]	1.8	–	GPILSM relaxant potency, times less potent than nifedipine [2]: about 3 times
C=CCOC(=O)C1=C(C)NC(C)=C(C(=O)OCC=C)C1c1c(-c2ccc(OC(F)(F)F)cc2)nc2sccn12 [Compound 21, Diallyl 2,6-Dimethyl-4-(6-(4-(trifluoromethoxy)phenyl)imidazo[2,1-b]thiazol-5-yl)-1,4-dihydropyridine-3,5-dicarboxylate]	1.09	–	GPILSM relaxant potency, times less potent than nifedipine [2]: about 3 times
CCOC(=O)C1=C(C)NC(C)=C(C(=O)OCC)C1c1c(-c2ccccc2)nc2sc(C)cn12 [Compound 22, Diethyl 2,6-Dimethyl-4-(2-methyl-6-phenylimidazo[2,1-b]thiazol-5-yl)-1,4-dihydropyridine-3,5-dicarboxylate]	0.93	–	–
COC(=O)C1=C(C)NC(C)=C(C(=O)OC)C1c1c(-c2ccccc2)nc2n1CCS2 [Compound 23, Dimethyl 2,6-Dimethyl-4-(6-phenyl-2,3-dihydroimidazo[2,1-b]thiazol-5-yl)-1,4-dihydropyridine-3,5-dicarboxylate]	–	inactive ^b	–
C=CCOC(=O)C1=C(C)NC(C)=C(C(=O)OCC=C)C1c1c(-c2cc(OC)ccc2OC)nc2sccn12 [Compound 24, Diallyl 4-(6-(2,5-Dimethoxyphenyl)imidazo[2,1-b]thiazol-5-yl)-2,6-dimethyl-1,4-dihydropyridine-3,5-dicarboxylate]	–	inactive ^b	–
CCOC(=O)C1=C(C)NC(C)=C(C(=O)OCC)C1c1c(Cl)nc2sc(C)cn12 [Compound 25, Diethyl 4-(6-Chloro-2-methylimidazo[2,1-b]thiazol-5-yl)-2,6-dimethyl-1,4-dihydropyridine-3,5-dicarboxylate]	0.86	–	GPILSM relaxant potency, times less potent than nifedipine [2]: about 65 times
CCOC(=O)C1=C(C)NC(C)=C(C(=O)OCC)C1c1c(-c2ccc(Cl)c(Cl)c2Cl)nc2sccn12 [Compound 26, Diethyl 2,6-Dimethyl-4-(6-(2,3,4-trichlorophenyl)imidazo[2,1-b]thiazol-5-yl)-1,4-dihydropyridine-3,5-dicarboxylate]	0.44	–	GPILSM relaxant potency, times less potent than nifedipine [2]: about 65 times
COC(=O)C1=C(C)NC(C)=C(C(=O)OC)C1c1c(C(F)(F)F)nc2sccn12 [Compound 27]	1.89	–	–
COC(=O)C1=C(C)NC(C)=C(C(=O)OC)C1c1c(C(F)(F)F)nc2sc(C)cn12 [Compound 28]	0.88	–	intrinsic activity, inotropic effect [4]: less than 50%; intrinsic activity, chronotropic effect [5]: < 40%; GPILSM relaxant potency, times less potent than nifedipine [2]: about 65 times
COC(=O)C1=C(C)NC(C)=C(C(=O)OC)C1c1c(C)nc2sc(Cl)cn12 [Compound 29]	1.55	–	negative inotropic effect, times greater than that of nifedipine [3]: about 2.6 times
COC(=O)C1=C(C)NC(C)=C(C(=O)OC)C1c1c(C)nc2sc(C)cn12 [Compound 30]	–	inactive ^b	intrinsic activity, inotropic effect [4]: less than 50%; intrinsic activity, chronotropic effect [5]: < 40%
COC(=O)C1=C(C)NC(C)=C(C(=O)OC)C1c1c(Cl)nc2sc(Cl)cn12 [Compound 31]	1.04	–	negative inotropic effect, times greater than that of nifedipine [3]: about 2.6 times
COC(=O)C1=C(C)NC(C)=C(C(=O)OC)C1c1c(Cl)nc2sc(C)cn12 [Compound 32]	–	inactive ^b	–
COC(=O)C1=C(C)NC(C)=C(C(=O)OC)C1c1c(Cl)nc2scc(C)n12 [Compound 33]	0.82	–	negative inotropic effect, times greater than that of nifedipine [3]: about 2.6 times
COC(=O)C1=C(C)NC(C)=C(C(=O)OC)C1c1c(Cl)nc2sc(C)c(C)n12 [Compound 34]	1.32	–	–

Structure (SMILES)	nH (Hill coefficient) [1]	activity on ΔF508-CFTR [1]	further results
COC(=O)C1=C(C)NC(C)=C(C(=O)OC)C1c1c(-c2ccccc2OC)nc2sccn12 [Compound 35]	–	inactive ^b	–
COC(=O)C1=C(C)NC(C)=C(C(=O)OC)C1c1c(-c2cccc(OC)c2)nc2sccn12 [Compound 36]	1.5	–	GPILSM relaxant potency, times less potent than nifedipine [2]: about 65 times
COC(=O)C1=C(C)NC(C)=C(C(=O)OC)C1c1c(-c2ccccc2OC(F)(F)F)nc2sccn12 [Compound 37]	–	inactive ^b	–
COC(=O)C1=C(C)NC(C)=C(C(=O)OC)C1c1c(-c2cccc(OC(F)(F)F)c2)nc2sccn12 [Compound 38]	0.81	–	GPILSM relaxant potency, times less potent than nifedipine [2]: about 65 times
COC(=O)C1=C(C)NC(C)=C(C(=O)OC)C1c1c(-c2cccc(C(F)(F)F)c2)nc2sccn12 [Compound 39]	1.01	–	GPILSM relaxant potency, times less potent than nifedipine [2]: about 65 times
COC(=O)C1=C(C)NC(C)=C(C(=O)OC)C1c1c(-c2cc(OC)ccc2OC)nc2sc(C)cn12 [Compound 40]	–	inactive ^b	–
COC(=O)C1=C(C)NC(C)=C(C(=O)OC)C1c1c(-c2cc(OC)ccc2OC)nc2sc(Cl)cn12 [Compound 41]	–	inactive ^b	–
CCc1cn2c(C3C(C(=O)OC)=C(C)NC(C)=C3C(=O)OC)c(-c3cc(OC)ccc3OC)nc2s1 [Compound 42]	–	inactive ^b	–
COC(=O)C1=C(C)NC(C)=C(C(=O)OC)C1c1c(-c2ccc(OC)c(OC)c2)nc2sccn12 [Compound 43]	–	inactive ^b	–
COC(=O)C1=C(C)NC(C)=C(C(=O)OC)C1c1c(-c2cc(OC)c(OC)c(OC)c2)nc2sc(Cl)cn12 [Compound 44]	–	inactive ^b	intrinsic activity, inotropic effect [4]: less than 50%; intrinsic activity, chronotropic effect [5]: < 40%
COC(=O)C1=C(C)NC(C)=C(C(=O)OC)C1c1c(-c2cc(OC)c([N+](=O)[O-])cc2OC)nc2sc(Cl)cn12 [Compound 45]	–	inactive ^b	EC50 ([5]; read-out: EC50 of chronotropic negative activity, Probit analysis, ref RS1): 18.5 µM; GPILSM relaxant potency, times less potent than nifedipine [2]: about 65 times
COC(=O)C1=C(C)NC(C)=C(C(=O)OC)C1c1c(-c2c(OC)ccc(OC)c2[N+](=O)[O-])nc2sccn12 [Compound 46]	–	inactive ^b	–
COC(=O)C1=C(C)NC(C)=C(C(=O)OC)C1c1c(-c2cc(OC)c(OC)cc2[N+](=O)[O-])nc2sccn12 [Compound 47]	–	inactive ^b	–
CCOC(=O)C1=C(C)NC(C)=C(C(=O)OCC)C1c1cccc(Oc2ccccc2)c1 [Compound 48, reference compound]	0.97	–	–
C=CCOC(=O)C1=C(C)NC(C)=C(C(=O)OCC=C)C1c1ccc(C(C)(C)C)cc1 [Compound 49, reference compound]	3.58	–	–
C=CCOC(=O)C1=C(C)NC(C)=C(C(=O)OCC=C)C1/C=C/c1ccccc1OC [Compound 50, reference compound]	1.18	–	–
O=c1c(-c2ccc(O)cc2)coc2cc(O)cc(O)c12 [genistein, reference compound]	1.3	–	inotropic activity ([4]; up to 10 μM): positive inotropic activity; vascular effect in K+-depolarized (80 mM) vascular smooth muscle [6]: inactive
COC(=O)C1=C(C)NC(C)=C(C(=O)OC)C1c1ccccc1[N+](=O)[O-] [nifedipine, reference compound]	2.58	–	potency increase in nonvascular smooth muscle compared to aortic strips ([2]; GPILSM vs aortic strips): 6 times
